Results taken from ChEMBL document CHEMBL4418276, “Boldine derivatives for promoting bone growth” (2014).

Molecular target: T1, Sclerostin (Homo sapiens, UniProt Q9BQB4)
T1 sequence (Q9BQB4 whole entry): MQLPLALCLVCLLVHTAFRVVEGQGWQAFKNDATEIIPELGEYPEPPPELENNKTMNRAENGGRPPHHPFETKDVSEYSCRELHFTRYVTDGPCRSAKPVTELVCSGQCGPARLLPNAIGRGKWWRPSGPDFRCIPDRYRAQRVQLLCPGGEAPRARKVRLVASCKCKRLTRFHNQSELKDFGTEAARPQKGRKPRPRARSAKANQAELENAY
Assay: Inhibition of sclerostin in human embryonic cells assessed as restoration of Wnt signaling by luciferase reporter gene assay
Format: cell-based

COc1cc2c(cc1OC)-c1c(OC)c(OC)c(C=O)c3c1[C@H](C2)N(C)CC3
IC50: 1.5 µM
